Test system: SYO-1 tumor spheroids, viability % test/control
Test: Anticancer human tumor SYO-1 cell line growth inhibition;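 also: spheroids exposed to agents for 7 days before viability read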;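 as to viability, T/C: 100% = DMSO vehicle control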
Details: spheroids with HUVEC and MSC; for IC50: curve of first compound; for viability, T/C: stronger effect = lower value
How it was run: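 Complex tumor spheroids combined malignant cells with endothelial cells and mesenchymal stem cells. DNA-damaging drugs and DNA repair inhibitors were tested alone and in combination, at half-log dilutions down from clinical Cmax (top 10 microM if Cmax unknown), 0.25% DMSO final.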

[1] = second compound 30 pM, first compound 0.0316 µM
[2] = second compound 30 pM, first compound 0.1 µM
[3] = second compound 30 pM, first compound 0.316 µM
[4] = second compound 30 pM, first compound 1 µM
[5] = second compound 30 pM, first compound 3.16 µM
[6] = second compound 30 pM, first compound 10 µM
[7] = second compound 94.9 pM, first compound 0.0316 µM
[8] = second compound 94.9 pM, first compound 0.1 µM
[9] = second compound 94.9 pM, first compound 0.316 µM
[10] = second compound 94.9 pM, first compound 1 µM
[11] = second compound 94.9 pM, first compound 3.16 µM
[12] = second compound 94.9 pM, first compound 10 µM
[13] = second compound 0.0003 µM, first compound 0.0316 µM
[14] = second compound 0.0003 µM, first compound 0.1 µM
[15] = second compound 0.0003 µM, first compound 0.316 µM
[16] = second compound 0.0003 µM, first compound 1 µM
[17] = second compound 0.0003 µM, first compound 3.16 µM
[18] = second compound 0.0003 µM, first compound 10 µM
[19] = second compound 0.000949 µM, first compound 0.0316 µM
[20] = second compound 0.000949 µM, first compound 0.1 µM
[21] = second compound 0.000949 µM, first compound 0.316 µM
[22] = second compound 0.000949 µM, first compound 1 µM
[23] = second compound 0.000949 µM, first compound 3.16 µM
[24] = second compound 0.000949 µM, first compound 10 µM
[25] = second compound 0.003 µM, first compound 0.0316 µM
[26] = second compound 0.003 µM, first compound 0.1 µM
[27] = second compound 0.003 µM, first compound 0.316 µM
[28] = second compound 0.003 µM, first compound 1 µM
[29] = second compound 0.003 µM, first compound 3.16 µM
[30] = second compound 0.003 µM, first compound 10 µM

SMILES | IC50 (second compound 30 pM) [nM] | IC50 (second compound 94.9 pM) [nM] | IC50 (second compound 0.0003 µM) [nM] | IC50 (second compound 0.000949 µM) [nM] | IC50 (second compound 0.003 µM) [nM] | viability, T/C [1] [%] | viability, T/C [2] [%] | viability, T/C [3] [%] | viability, T/C [4] [%] | viability, T/C [5] [%] | viability, T/C [6] [%] | viability, T/C [7] [%] | viability, T/C [8] [%] | viability, T/C [9] [%] | viability, T/C [10] [%] | viability, T/C [11] [%] | viability, T/C [12] [%] | viability, T/C [13] [%] | viability, T/C [14] [%] | viability, T/C [15] [%] | other results
CC(C)n1c(=O)n(C)c2cnc3cc(F)c(-c4ccc(OCCCN5CCCCC5)nc4)cc3c21 + COc1cc2c(cc1O)CCNC21CSC2c3c(OC(C)=O)c(C)c4c(c3C(COC1=O)N1C(O)C3Cc5cc(C)c(OC)c(O)c5C(C21)N3C)OCO4 | 7380 | < 31.6 | < 31.6 | < 31.6 | < 31.6 | 99.7 | 97.7 | 98 | 99.4 | 89.7 | 35.5 | 37.6 | 33.4 | 43.2 | 52.4 | 50 | 21.6 | 2.89 | 2.78 | 3.15 | viability, T/C [16]: 3.23%; viability, T/C [17]: 2.46%; viability, T/C [18]: 0.62%; viability, T/C [19]: 0.98%; viability, T/C [20]: 1.01%; viability, T/C [21]: 0.98%; viability, T/C [22]: 1.04%; viability, T/C [23]: 0.96%; viability, T/C [24]: 0.32%; viability, T/C [25]: 0.12%; viability, T/C [26]: 0.12%; viability, T/C [27]: 0.12%; viability, T/C [28]: 0.13%; viability, T/C [29]: 0.13%; viability, T/C [30]: 0.22%
CC1COCCN1c1cc(-c2ccnn2C)c2ccnc(-c3ccn[nH]3)c2n1 (stereo not given) + COc1cc2c(cc1O)CCNC21CSC2c3c(OC(C)=O)c(C)c4c(c3C(COC1=O)N1C(O)C3Cc5cc(C)c(OC)c(O)c5C(C21)N3C)OCO4 | < 31.6 | < 31.6 | < 31.6 | < 31.6 | < 31.6 | 3.62 | 1.79 | 1.29 | 0.95 | 0.42 | 0.48 | 1.83 | 1.41 | 1.17 | 0.6 | 0.3 | 0.41 | 1.24 | 1.22 | 0.9 | viability, T/C [16]: 0.63%; viability, T/C [17]: 0.26%; viability, T/C [18]: 0.29%; viability, T/C [19]: 1.03%; viability, T/C [20]: 0.61%; viability, T/C [21]: 0.54%; viability, T/C [22]: 0.31%; viability, T/C [23]: 0.2%; viability, T/C [24]: 0.19%; viability, T/C [25]: 0.11%; viability, T/C [26]: 0.11%; viability, T/C [27]: 0.09%; viability, T/C [28]: 0.09%; viability, T/C [29]: 0.1%; viability, T/C [30]: 0.16%
COc1cc(C)[nH]c(=O)c1CN1CCc2c(Cl)cc(C(OC)C3COC3)c(Cl)c2C1=O (stereo not given) + COc1cc2c(cc1O)CCNC21CSC2c3c(OC(C)=O)c(C)c4c(c3C(COC1=O)N1C(O)C3Cc5cc(C)c(OC)c(O)c5C(C21)N3C)OCO4 | 1490 | 198 | < 31.6 | < 31.6 | < 31.6 | 104 | 104 | 79.3 | 55.3 | 42.5 | 40.5 | 94 | 65.8 | 39.9 | 20.9 | 16.5 | 11.5 | 6.74 | 4 | 3.76 | viability, T/C [16]: 3.14%; viability, T/C [17]: 2.73%; viability, T/C [18]: 2.74%; viability, T/C [19]: 0.89%; viability, T/C [20]: 0.96%; viability, T/C [21]: 0.72%; viability, T/C [22]: 0.67%; viability, T/C [23]: 0.86%; viability, T/C [24]: 0.76%; viability, T/C [25]: 0.11%; viability, T/C [26]: 0.09%; viability, T/C [27]: 0.1%; viability, T/C [28]: 0.11%; viability, T/C [29]: 0.11%; viability, T/C [30]: 0.17%
COc1ccc([C@@H](O)c2cc(-c3ncnc4cc(N5CCOCC5)ccc34)c(F)cc2Cl)nn1 + COc1cc2c(cc1O)CCNC21CSC2c3c(OC(C)=O)c(C)c4c(c3C(COC1=O)N1C(O)C3Cc5cc(C)c(OC)c(O)c5C(C21)N3C)OCO4 | 3170 | 772 | < 31.6 | < 31.6 | < 31.6 | 104 | 103 | 105 | 102 | 50.1 | 2.83 | 97.7 | 103 | 94.9 | 37 | 5.43 | 7.51 | 12.2 | 9.57 | 3.06 | viability, T/C [16]: 1.34%; viability, T/C [17]: 0.26%; viability, T/C [18]: 0.17%; viability, T/C [19]: 0.88%; viability, T/C [20]: 0.86%; viability, T/C [21]: 0.54%; viability, T/C [22]: 0.23%; viability, T/C [23]: 0.03%; viability, T/C [24]: 0.15%; viability, T/C [25]: 0.12%; viability, T/C [26]: 0.12%; viability, T/C [27]: 0.1%; viability, T/C [28]: 0.24%; viability, T/C [29]: 0.38%; viability, T/C [30]: 1.5%
Cc1cc(C)c(CNC(=O)c2cc(-c3ccc(CN4CCOCC4)cc3)cc3c2cnn3C2CCCC2)c(=O)[nH]1 + COc1cc2c(cc1O)CCNC21CSC2c3c(OC(C)=O)c(C)c4c(c3C(COC1=O)N1C(O)C3Cc5cc(C)c(OC)c(O)c5C(C21)N3C)OCO4 | > 10000 | 7980 | < 31.6 | < 31.6 | < 31.6 | 103 | 97.2 | 100 | 103 | 107 | 96.3 | 102 | 96.3 | 99.2 | 99.8 | 84.5 | 41.1 | 18.4 | 14.3 | 13.3 | viability, T/C [16]: 11%; viability, T/C [17]: 12.2%; viability, T/C [18]: 3.97%; viability, T/C [19]: 0.91%; viability, T/C [20]: 0.86%; viability, T/C [21]: 1.11%; viability, T/C [22]: 0.97%; viability, T/C [23]: 0.9%; viability, T/C [24]: 1.08%; viability, T/C [25]: 0.13%; viability, T/C [26]: 0.13%; viability, T/C [27]: 0.13%; viability, T/C [28]: 0.15%; viability, T/C [29]: 0.14%; viability, T/C [30]: 0.2%
[2H]c1nc(C)nc([2H])c1-c1cc(NC[C@@H](C)c2cccc3c(C(=O)NC)ccnc23)ncn1 + COc1cc2c(cc1O)CCNC21CSC2c3c(OC(C)=O)c(C)c4c(c3C(COC1=O)N1C(O)C3Cc5cc(C)c(OC)c(O)c5C(C21)N3C)OCO4 | > 10000 | > 10000 | < 31.6 | < 31.6 | < 31.6 | 95.9 | 101 | 102 | 102 | 104 | 102 | 97.7 | 97.1 | 99.6 | 98.8 | 100 | 95.7 | 10.9 | 11.6 | 12.2 | viability, T/C [16]: 11.5%; viability, T/C [17]: 13.1%; viability, T/C [18]: 5.66%; viability, T/C [19]: 0.9%; viability, T/C [20]: 0.98%; viability, T/C [21]: 0.92%; viability, T/C [22]: 0.87%; viability, T/C [23]: 0.92%; viability, T/C [24]: 0.94%; viability, T/C [25]: 0.96%; viability, T/C [26]: 1.13%; viability, T/C [27]: 4.62%; viability, T/C [28]: 0.12%; viability, T/C [29]: 0.12%; viability, T/C [30]: 0.2%

Reference: PubChem BioAssay AID1845219 (Molecular Pharmacology Branch, DTP, NCI, 2023)
